Patent publication US7563791B2, “Pyrrolotriazine derivatives useful for treating hyper-proliferative disorders and diseases associated with angiogenesis” (Bayer Pharmaceuticals Corporation, priority 2004, dated 2009)

Assays:
Assay type in all cases: cell-based
[1] = system: VEGF stimulated Phospho-ERK in HUVEC; assay: Growth factor stimulated p-ERK assay in HUVECs (VEGF stimulation, ERK1/2 Bioplex); conditions: Homo sapiens, @ 100 nM, compound 2 hrs, then 50 ng/ml VEGF 10 min
How it was run: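 HUVECs in serum-free RPMI 1640/0.1% BSA pretreated with compound 2 hrs, then stimulated 10 min with 50 ng/ml VEGF (or bFGF). Lysate phospho-ERK1/2 quantified by bead-based Bio-Plex immunoassay on Luminex.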

[2] = system: histone 3 phosphorylation in colon carcinoma (HCT116); assay: p-Histone3 assay: inhibition of histone 3 phosphorylation in HCT116; conditions: Homo sapiens, HCT-116, 24 h, HCT116, 24 hours compound treatment
Experimental: Compounds were assayed for the inhibition of histone 3 phosphorylation in colon carcinoma (HCT116). Briefly, 20,000 cells/well were seeded in a 96-well black-walled, poly-d-lysine plates in RPMI+10% FBS and incubated at 37° C. in 5% CO2 overnight. The following day, the cells were treated with compounds for 24 hours at 37° C. Following compound treatment; plates were centrifuged at 1000 rpm for 2 minutes and washed twice with 100 μl of cold sterile TBS. Cells were then fixed with cold 3.7% formaldehyde in TBS (4° C. for 1 hour) and then permeabolized with 0.1% Triton-X-100 in TBS (room temperature for 30 minutes). Plates were then washed with of 0.25% BSA-TBS and blocked with BSA solution for 1 hour at room temperature while shaking. The supernatant was removed and replaced with diluted primary antibody (anti-phospho-histone 3, serine 10, Cell Signaling) at 1:250 in 0.25% BSA-TBS and incubated overnight at 4° C. The plates were washed and treated with diluted secondary antibody (anti-rabbit Eu-labeled) at 1:10000 in 0.25% BSA-TBS (room temperature for 1 hour). The antibody solution was removed from each well and washed eight times. The wash buffer was replaced with 50 μl pre-warmed enhancement solution and mixed on the orbital shaker for 10 minutes. Fluorescence was detected with a Victor V Fluorescence Detector. The data are expressed as percent inhibition: % inhibition=100−((Signal with inhibitor-background)/(Signal without inhibitor-background))×100.

[3] = system: MDA-MB-231 cells; assay: Tumor cell proliferation (Alamar Blue), MDA-MB-231; conditions: Homo sapiens, MDA-MB-231, 72 h
How it was run: (§1)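 Cells seeded at 3.0×10^3/well in RPMI with 10% FBS for 16 h, then treated with compound (added medium held 40 μM to 18 nM compound, 0.4% DMSO) for 72 h at 37 °C, 5% CO2. Viability by Alamar Blue, 3 h, fluorescence 544/590 nm. IC50 by linear regression of log concentration versus percent inhibition.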

[4] = system: HCT116 cells; assay: Tumor cell proliferation (Alamar Blue), HCT116; conditions: Homo sapiens, HCT-116, 72 h
How it was run: as §1

- IC50 [2]: > 0.5 µM
- IC50 ([2]; bound given in μM): < 1 µM
- IC50 [3]: > 0.5 µM
- IC50 ([3]; bounds given in μM): < 1.5 µM
- IC50 [4]: > 0.5 µM
- IC50 ([4]; bounds given in μM): < 1.5 µM
SMILES: CNC(=O)c1cn2ncnc(N)c2c1-c1ccc(NC(=O)Nc2cc(C(F)(F)F)ccc2F)cc1 [Example 59, 4-amino-5-{4-[({[2-fluoro-5-(trifluoromethyl)phenyl]amino}carbonyl)amino]phenyl}-N-methylpyrrolo[2,1-f][1,2,4]triazine-6-carboxamide]
- inhibition at 0.1 µM [1]: > 50%
